The assay deals with T1, LHRH (Rattus norvegicus, UniProt P30969).
T1 construct: endogenous in cells; host or cells: rat pituitary cells (own knowledge of the cited Haviv 1989 method)
T1 sequence (P30969 1-327): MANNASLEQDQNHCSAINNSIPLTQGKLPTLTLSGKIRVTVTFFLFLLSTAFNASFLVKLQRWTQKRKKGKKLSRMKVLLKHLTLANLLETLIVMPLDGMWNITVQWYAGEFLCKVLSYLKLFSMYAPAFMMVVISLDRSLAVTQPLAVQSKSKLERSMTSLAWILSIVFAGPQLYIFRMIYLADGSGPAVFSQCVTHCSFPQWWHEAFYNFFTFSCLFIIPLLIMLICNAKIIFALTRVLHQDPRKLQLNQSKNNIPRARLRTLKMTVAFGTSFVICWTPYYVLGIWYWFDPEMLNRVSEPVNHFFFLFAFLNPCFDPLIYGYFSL
Nature of the assay: in vitro test for LHRH antagonist potency (pA2). As to conditions: negative logarithm of the antagonist concentration required to shift the response curve produced by the agonist leuprolide to two-fold higher concentration. Type of assay: cell-based. Summed up:
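Rat LHRH receptor in vitro functional test; pA2 = negative log of the antagonist concentration shifting the leuprolide agonist response curve to two-fold higher concentration.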

Usually Kb stands for the equilibrium dissociation constant of an antagonist, usually derived from a functional assay.

Non-standard residues stand in square brackets, D forms with d. Residues, ends and D or L forms follow the SMILES beside them. Groups on a side chain read outwards from the residue. *: point of attachment. NMePhe(4-NO2) = CN[C@@H](Cc1ccc([N+](=O)[O-])cc1)C(=O)O; Shikimoyl = O=C(C1=C[C@@H](O)[C@@H](O)[C@H](O)C1)*; Quinoline3carbonyl = O=C(c1cnc2ccccc2c1)*; dPhe(4-Cl) = N[C@H](Cc1ccc(Cl)cc1)C(=O)O; d2Nal = N[C@H](Cc1ccc2ccccc2c1)C(=O)O; NMeY = CN[C@@H](Cc1ccc(O)cc1)C(=O)O; NMeF = CN[C@@H](Cc1ccccc1)C(=O)O; hArg = N=C(N)NCCCC[C@H](N)C(=O)O; d3Pal = N[C@H](Cc1cccnc1)C(=O)O; Nicotinoyl = O=C(c1cccnc1)*; 2Furoyl = O=C(c1ccco1)*; Aze = O=C(O)[C@@H]1CCN1; βAla = NCCC(=O)O

For the molecule `CC(C)C[C@H](NC(=O)[C@@H](CCCCNC(=O)C1=C[C@@H](O)[C@@H](O)[C@H](O)C1)NC(=O)[C@H](Cc1ccc(O)cc1)N(C)C(=O)[C@H](CO)NC(=O)[C@@H](Cc1cccnc1)NC(=O)[C@@H](Cc1ccc(Cl)cc1)NC(=O)[C@@H](Cc1ccc2ccccc2c1)NC(=O)CNC(=O)c1cccnc1)C(=O)N[C@@H](CCCCNC(=N)N)C(=O)N1CCC[C@H]1C(=O)N[C@H](C)C(N)=O` [Example 25a, N-Nicotinyl-Gly-D2Nal-D4ClPhe-D3Pal-Ser-NMeTyr-DLys(Shik)-Leu-Harg-Pro-DAlaNH2] (Nicotinoyl-G[d2Nal][dPhe(4-Cl)][d3Pal]S[NMeY][dK](Shikimoyl)L[hArg]P[dA]-NH2), the antagonist equilibrium constant (Kb) was 0.0141 nM. With `CC(C)C[C@H](NC(=O)[C@@H](CCCCNC(=O)C1=C[C@@H](O)[C@@H](O)[C@H](O)C1)NC(=O)[C@H](Cc1ccc(O)cc1)N(C)C(=O)[C@H](CO)NC(=O)[C@@H](Cc1cccnc1)NC(=O)[C@@H](Cc1ccc(Cl)cc1)NC(=O)[C@@H](Cc1ccc2ccccc2c1)NC(=O)[C@@H](CO)NC(=O)c1cccnc1)C(=O)N[C@@H](CCCCNC(=N)N)C(=O)N1CCC[C@H]1C(=O)N[C@H](C)C(N)=O` [Example 25b, N-Nicotinyl-DSer-D2Nal-D4ClPhe-D3Pal-Ser-NMeTyr-DLys(Shikimyl)-Leu-Harg-Pro-DAlaNH2] (Nicotinoyl-[dS][d2Nal][dPhe(4-Cl)][d3Pal]S[NMeY][dK](Shikimoyl)L[hArg]P[dA]-NH2), the antagonist dissociation constant (Kb) is 0.00794 nM. `CC(C)C[C@H](NC(=O)[C@@H](CCCCNC(=O)C1=C[C@@H](O)[C@@H](O)[C@H](O)C1)NC(=O)[C@H](Cc1ccc(O)cc1)N(C)C(=O)[C@H](CO)NC(=O)[C@@H](Cc1cccnc1)NC(=O)[C@@H](Cc1ccc(Cl)cc1)NC(=O)[C@@H](Cc1ccc2ccccc2c1)NC(=O)CNC(=O)c1ccco1)C(=O)N[C@@H](CCCCNC(=N)N)C(=O)N1CCC[C@H]1C(=O)N[C@H](C)C(N)=O` [Example 25c, N-(2-Furoyl)-Gly-D2Nal-D4ClPhe-D3Pal-Ser-NMeTyr-DLys(Shik)-Leu-Harg-Pro-DAlaNH2] (2Furoyl-G[d2Nal][dPhe(4-Cl)][d3Pal]S[NMeY][dK](Shikimoyl)L[hArg]P[dA]-NH2): the Kb was 0.0017 nM.

For `CC(C)C[C@H](NC(=O)[C@@H](CCCCNC(=O)C1=C[C@@H](O)[C@@H](O)[C@H](O)C1)NC(=O)[C@H](Cc1ccc(O)cc1)N(C)C(=O)[C@H](CO)NC(=O)[C@@H](Cc1cccnc1)NC(=O)[C@@H](Cc1ccc(Cl)cc1)NC(=O)[C@@H](Cc1ccc2ccccc2c1)NC(=O)CNC(=O)C1=C[C@@H](O)[C@@H](O)[C@H](O)C1)C(=O)N[C@@H](CCCCNC(=N)N)C(=O)N1CCC[C@H]1C(=O)N[C@H](C)C(N)=O` [Example 25d, N-Shikimyl-Gly-D2Nal-D4ClPhe-D3Pal-Ser-NMeTyr-DLys(Shik)-Leu-Harg-Pro-DAlaNH2] (Shikimoyl-G[d2Nal][dPhe(4-Cl)][d3Pal]S[NMeY][dK](Shikimoyl)L[hArg]P[dA]-NH2), the Kb was 0.0339 nM.

As to `CC(C)C[C@H](NC(=O)[C@@H](CCCCNC(=O)CNC(=O)C1=C[C@@H](O)[C@@H](O)[C@H](O)C1)NC(=O)[C@H](Cc1ccc(O)cc1)N(C)C(=O)[C@H](CO)NC(=O)[C@@H](Cc1cccnc1)NC(=O)[C@@H](Cc1ccc(Cl)cc1)NC(=O)[C@@H](Cc1ccc2ccccc2c1)NC(=O)CNC(=O)c1cccnc1)C(=O)N[C@@H](CCCCNC(=N)N)C(=O)N1CCC[C@H]1C(=O)N[C@H](C)C(N)=O` [Example 25e, N-Nicotinyl-Gly-D2Nal-D4ClPhe-D3Pal-Ser-NMeTyr-DLys(Gly-Shik)-Leu-Harg-Pro-DAlaNH2] (Nicotinoyl-G[d2Nal][dPhe(4-Cl)][d3Pal]S[NMeY][dK]([Gly-Shikimoyl])L[hArg]P[dA]-NH2), the antagonist equilibrium constant (Kb) is 0.00339 nM. Next, `CC(C)C[C@H](NC(=O)[C@@H](CCCCNC(=O)c1cccnc1)NC(=O)[C@H](Cc1ccc(O)cc1)N(C)C(=O)[C@H](CO)NC(=O)[C@@H](Cc1cccnc1)NC(=O)[C@@H](Cc1ccc(Cl)cc1)NC(=O)[C@@H](Cc1ccc2ccccc2c1)NC(=O)CNC(=O)c1cccnc1)C(=O)N[C@@H](CCCCNC(=N)N)C(=O)N1CCC[C@H]1C(=O)N[C@H](C)C(N)=O` [Example 25f, N-Nicotinyl-Gly-D2Nal-D4ClPhe-D3Pal-Ser-NMeTyr-DLys(Nicotinyl)-Leu-Harg-Pro-DAlaNH2] (Nicotinoyl-G[d2Nal][dPhe(4-Cl)][d3Pal]S[NMeY][dK](Nicotinoyl)L[hArg]P[dA]-NH2): 0.0234 nM; `CC(C)C[C@H](NC(=O)[C@@H](CCCCNC(=O)C1=C[C@@H](O)[C@@H](O)[C@H](O)C1)NC(=O)[C@H](Cc1ccc(O)cc1)N(C)C(=O)[C@H](CO)NC(=O)[C@@H](Cc1cccnc1)NC(=O)[C@@H](Cc1ccc(Cl)cc1)NC(=O)[C@@H](Cc1ccc2ccccc2c1)NC(=O)CNC(=O)c1cnc2ccccc2c1)C(=O)N[C@@H](CCCCNC(=N)N)C(=O)N1CCC[C@H]1C(=O)N[C@H](C)C(N)=O` [Example 25g, N-(3-Quinolinylcarbonyl)-Gly-D2Nal-D4ClPhe-D3Pal-Ser-NMeTyr-DLys(Shikimyl)-Leu-Harg-Pro-DAlaNH2] (Quinoline3carbonyl-G[d2Nal][dPhe(4-Cl)][d3Pal]S[NMeY][dK](Shikimoyl)L[hArg]P[dA]-NH2): 0.0324 nM. Next, `CC(C)C[C@H](NC(=O)[C@@H](CCCCNC(=O)C1=C[C@@H](O)[C@@H](O)[C@H](O)C1)NC(=O)[C@H](Cc1ccccc1)N(C)C(=O)[C@H](CO)NC(=O)[C@@H](Cc1cccnc1)NC(=O)[C@@H](Cc1ccc(Cl)cc1)NC(=O)[C@@H](Cc1ccc2ccccc2c1)NC(=O)CNC(=O)c1cccnc1)C(=O)N[C@@H](CCCCNC(=N)N)C(=O)N1CCC[C@H]1C(=O)N[C@H](C)C(N)=O` [Example 26a, N-Nicotinyl-Gly-D2Nal-D4ClPhe-D3Pal-Ser-NMePhe-DLys(Shik)-Leu-Harg-Pro-DAlaNH2] (Nicotinoyl-G[d2Nal][dPhe(4-Cl)][d3Pal]S[NMeF][dK](Shikimoyl)L[hArg]P[dA]-NH2): 0.0275 nM; `CC(C)C[C@H](NC(=O)[C@@H](CCCCNC(=O)C1=C[C@@H](O)[C@@H](O)[C@H](O)C1)NC(=O)[C@H](Cc1ccc([N+](=O)[O-])cc1)N(C)C(=O)[C@H](CO)NC(=O)[C@@H](Cc1cccnc1)NC(=O)[C@@H](Cc1ccc(Cl)cc1)NC(=O)[C@@H](Cc1ccc2ccccc2c1)NC(=O)CNC(=O)c1cccnc1)C(=O)N[C@@H](CCCCNC(=N)N)C(=O)N1CCC[C@H]1C(=O)N[C@H](C)C(N)=O` [Example 26b, N-Nicotinyl-Gly-D2Nal-D4ClPhe-D3Pal-Ser-NMePhe(NO2)-DLys(Shik)-Leu-Harg-Pro-DAlaNH2] (Nicotinoyl-G[d2Nal][dPhe(4-Cl)][d3Pal]S[NMePhe(4-NO2)][dK](Shikimoyl)L[hArg]P[dA]-NH2): 0.0437 nM. With `CC(C)C[C@H](NC(=O)[C@@H](CCCCNC(=O)c1cccnc1)NC(=O)[C@H](Cc1ccc(O)cc1)N(C)C(=O)[C@H](CO)NC(=O)[C@@H](Cc1cccnc1)NC(=O)[C@@H](Cc1ccc(Cl)cc1)NC(=O)[C@@H](Cc1ccc2ccccc2c1)NC(=O)CNC(=O)c1cccnc1)C(=O)N[C@@H](CCCNC(=N)N)C(=O)N1CCC[C@H]1C(=O)N[C@H](C)C(N)=O` [Example 27a, N-Nicotinyl-Gly-D2Nal-D4ClPhe-D3Pal-Ser-NMeTyr-DLys(Nic)-Leu-Arg-Pro-DAlaNH2] (Nicotinoyl-G[d2Nal][dPhe(4-Cl)][d3Pal]S[NMeY][dK](Nicotinoyl)LRP[dA]-NH2), the Kb was 0.00776 nM. Next, `CC(C)C[C@H](NC(=O)[C@@H](CCCCNC(=O)c1cccnc1)NC(=O)[C@H](Cc1ccc(O)cc1)N(C)C(=O)[C@H](CO)NC(=O)[C@@H](Cc1cccnc1)NC(=O)[C@@H](Cc1ccc(Cl)cc1)NC(=O)[C@@H](Cc1ccc2ccccc2c1)NC(=O)CNC(=O)C1=C[C@@H](O)[C@@H](O)[C@H](O)C1)C(=O)N[C@@H](CCCNC(=N)N)C(=O)N1CC[C@H]1C(=O)N[C@H](C)C(N)=O` [Example 27c, N-Shikimyl-Gly-D2Nal-D4ClPhe-D3Pal-Ser-NMeTyr-DLys(Nic)-Leu-Arg-Aze-DAlaNH2] (Shikimoyl-G[d2Nal][dPhe(4-Cl)][d3Pal]S[NMeY][dK](Nicotinoyl)LR[Aze][dA]-NH2): 0.0977 nM.

For `CC(C)C[C@H](NC(=O)[C@@H](CCCCNC(=O)C1=C[C@@H](O)[C@@H](O)[C@H](O)C1)NC(=O)[C@H](Cc1ccc(O)cc1)N(C)C(=O)[C@H](CO)NC(=O)[C@@H](Cc1cccnc1)NC(=O)[C@@H](Cc1ccc(Cl)cc1)NC(=O)[C@@H](Cc1ccc2ccccc2c1)NC(=O)CCNC(=O)c1cccnc1)C(=O)N[C@@H](CCCNC(=N)N)C(=O)N1CCC[C@H]1C(=O)N[C@H](C)C(N)=O` [Example 27d, N-Nicotinyl-3-Aminopropionyl-D2Nal-D4ClPhe-D3Pal-Ser-NMeTyr-DLys(Shikimyl)-Leu-Arg-Pro-DAlaNH 2] ({Nicotinoyl-βAla}-[d2Nal][dPhe(4-Cl)][d3Pal]S[NMeY][dK](Shikimoyl)LRP[dA]-NH2), the Kb was 0.00178 nM. The value for `CC(C)C[C@H](NC(=O)[C@@H](CCCCNC(=O)C1=C[C@@H](O)[C@@H](O)[C@H](O)C1)NC(=O)[C@H](Cc1ccc(O)cc1)N(C)C(=O)[C@H](CO)NC(=O)[C@@H](Cc1cccnc1)NC(=O)[C@@H](Cc1ccc(Cl)cc1)NC(=O)[C@@H](Cc1ccc2ccccc2c1)NC(=O)CCNC(=O)C1=C[C@@H](O)[C@@H](O)[C@H](O)C1)C(=O)N[C@@H](CCCNC(=N)N)C(=O)N1CCC[C@H]1C(=O)N[C@H](C)C(N)=O` [Example 27e, N-Shikimyl-3-Aminopropionyl-D2Nal-D4ClPhe-D3Pal-Ser-NMeTyr-DLys(Shik)-Leu- Arg-Pro-DAlaNH2] ({Shikimoyl-βAla}-[d2Nal][dPhe(4-Cl)][d3Pal]S[NMeY][dK](Shikimoyl)LRP[dA]-NH2) was 0.0347 nM.

For the origin of these results see patent US5502035A, “N-terminus modified analogs of LHRH” (Tap Holdings Inc., priority 1994, dated 1996).
